Patent publication US6274715A, “Tricyclic erythromycin derivatives” (priority 1997, dated 2001)
Values after ≈ are worked out from the molar mass of the structure shown.

Legend:
Assay type in all cases: cell-based
[1] = tested on: STREPTOCOCCUS BOVIS A-5169; test: In vitro antibacterial activity, MIC, BHI agar dilution; conditions: S. bovis A-5169, unit assumed
[2] = tested on: MYCOBACTERIUM SMEGMATIS ATCC 114; test: as above; conditions: M. smegmatis ATCC 114, unit assumed
[3] = tested on: STREPTOCOCCUS PYOGENES EES61; test: as above; conditions: S. pyogenes EES61, unit assumed
[4] = tested on: STAPHYLOCOCCUS AUREUS 1775; test: as above; conditions: S. aureus 1775, unit assumed
[5] = tested on: ESCHERICHIA COLI H560; test: as above; conditions: E. coli H560, unit assumed
[6] = tested on: CANDIDA ALBICANS CCH 442; test: as above; conditions: C. albicans CCH 442, unit assumed
[7] = tested on: ESCHERICHIA COLI KNK 437; conditions: E. coli KNK 437; BHI agar; unit assumed
[8] = tested on: EN[…] ATCC 8043; test: In vitro antibacterial activity, MIC, BHI agar dilution; conditions: E. faecium ATCC 8043, unit assumed
Procedure, shortened: (§1)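 MIC was read visually as the lowest drug level with no growth, a slight haze or sparsely isolated colonies relative to a compound-free growth control. Organisms were spotted at 1:100 dilution (1:10 for slow-growing strains) onto Brain Heart Infusion agar containing serial compound dilutions and incubated 20 to 24 hours at 35-37° C.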

[9] = tested on: M[…] ATCC 4698; test: as above; conditions: M. luteus ATCC 4698, unit assumed
Procedure, shortened: as §1

[10] = tested on: STR[…] 508; test: as above; conditions: S. agalactiae CMX 508, unit assumed
Procedure, shortened: as §1

[11] = tested on: M[…] ATCC 9341; test: as above; conditions: M. luteus ATCC 9341, unit assumed
Procedure, shortened: as §1

[12] = tested on: PROVIDENCIA STUARTII CMX 640; conditions: P. stuartii CMX 640; BHI agar; unit assumed
[13] = tested on: STAPHYLOCOCCUS AUREUS A5177; test: In vitro antibacterial activity, MIC, BHI agar dilution; conditions: S. aureus A5177, unit assumed
[14] = tested on: PSEUDOMONAS AERUGINOSA BMH10; test: as above; conditions: P. aeruginosa BMH10, unit assumed
[15] = tested on: STAPHYLOCOCCUS AUREUS ATCC 6538P; test: as above; conditions: S. aureus ATCC 6538P, 35-37° C., 20 to 24 hours, unit assumed
[16] = tested on: PSEUDOMONAS AERUGINOSA 5007; test: as above; conditions: P. aeruginosa 5007, unit assumed
[17] = tested on: STAPHYLOCOCCUS AUREUS A-5278; test: as above; conditions: S. aureus A-5278, unit assumed
[18] = tested on: PSEUDOMONAS AERUGINOSA DPHD-2862; test: as above; conditions: P. aeruginosa DPHD-2862, unit assumed
[19] = tested on: ESCHERICHIA COLI DC-2; test: as above; conditions: E. coli DC-2, unit assumed
[20] = tested on: STAPHYLOCOCCUS AUREUS CMX 642A; test: as above; conditions: S. aureus CMX 642A, unit assumed
[21] = tested on: STAPHYLOCOCCUS EPIDERMIDIS 3519; conditions: S. epidermidis 3519; BHI agar; unit assumed
[22] = tested on: KLEBSIELLA PNEUMONIAE ATCC 8045; test: In vitro antibacterial activity, MIC, BHI agar dilution; conditions: K. pneumoniae ATCC 8045, unit assumed
[23] = tested on: ESCHERICHIA COLI JUHL; conditions: E. coli JUHL; BHI agar; unit assumed
[24] = tested on: STAPHYLOCOCCUS AUREUS CMX 553; test: In vitro antibacterial activity, MIC, BHI agar dilution; conditions: S. aureus CMX 553, unit assumed
[25] = tested on: PSEUDOMONAS CEPACIA 296I; test: as above; conditions: P. cepacia 296I, unit assumed
[26] = tested on: PSEUDOMONAS AERUGINOSA DPHD-5263; test: as above; conditions: P. aeruginosa DPHD-5263, unit assumed
[27] = tested on: ESCHERICHIA COLI SS; test: as above; conditions: E. coli SS, unit assumed
[28] = tested on: PSEUDOMONAS AERUGINOSA K799/61; test: as above; conditions: P. aeruginosa K799/61, unit assumed
[29] = tested on: STAPHYLOCOCCUS AUREUS NCTC10649M; test: as above; conditions: S. aureus NCTC10649M, unit assumed
[30] = tested on: ENTEROBACTER AEROGENES ATCC 13048; test: as above; conditions: E. aerogenes ATCC 13048, unit assumed
[31] = tested on: STREPTOCOCCUS PYOGENES 930; test: as above; conditions: S. pyogenes 930, unit assumed
[32] = tested on: PSEUDOMONAS AERUGINOSA K799/WT; test: as above; conditions: P. aeruginosa K799/WT, unit assumed
[33] = tested on: STREPTOCOCCUS PYOGENES PIU 2548; test: as above; conditions: S. pyogenes PIU 2548, unit assumed

Compound | MIC [1] | MIC [3] | MIC [4] | MIC [5] | MIC [6] | MIC [7] | MIC [8] | MIC [9] | MIC [10] | MIC [11] | MIC [12] | MIC [13] | MIC [14] | MIC [15] | MIC [16] | MIC [17] | MIC [18] | MIC [19] | MIC [20] | MIC [21] | also measured
CC[C@H]1OC(=O)[C@H](C)C(=O)[C@H](C)[C@@H](O[C@@H]2O[C@H](C)C[C@H](N(C)C)[C@H]2O)[C@](C)(OC)C[C@@H](C)C2=N[C@H](COCc3ccncc3)CN3C(=O)O[C@@]1(C)[C@H]3[C@H]2C [Example 77] | ≤ 0.005 µg/mL | < 0.005 µg/mL | > 100 µg/mL | 50 µg/mL (≈ 65.9 µM) | > 100 µg/mL | > 100 µg/mL | 0.05 µg/mL (≈ 0.0659 µM) | 0.39 µg/mL (≈ 0.514 µM) | 0.01 µg/mL (≈ 0.0132 µM) | 0.05 µg/mL (≈ 0.0659 µM) | > 100 µg/mL | 0.2 µg/mL (≈ 0.264 µM) | > 100 µg/mL | 0.39 µg/mL (≈ 0.514 µM) | > 100 µg/mL | > 100 µg/mL | > 100 µg/mL | 100 µg/mL (≈ 132 µM) | 0.39 µg/mL (≈ 0.514 µM) | 0.39 µg/mL (≈ 0.514 µM) | MIC [2]: 0.78 µg/mL (≈ 1.03 µM); MIC [22]: > 100 µg/mL; MIC [23]: > 100 µg/mL; MIC [24]: 0.39 µg/mL (≈ 0.514 µM); MIC [25]: > 100 µg/mL; MIC [26]: > 100 µg/mL; MIC [27]: 0.39 µg/mL (≈ 0.514 µM); MIC [28]: 1.56 µg/mL (≈ 2.06 µM); MIC [29]: 0.39 µg/mL (≈ 0.514 µM); MIC [30]: > 100 µg/mL; MIC [31]: > 100 µg/mL; MIC [32]: 100 µg/mL (≈ 132 µM)
CC[C@H]1OC(=O)[C@H](C)C(=O)[C@H](C)[C@@H](O[C@@H]2O[C@H](C)C[C@H](N(C)C)[C@H]2O)[C@](C)(OC)C[C@@H](C)C2=N[C@@H](COCc3ccncc3)CN3C(=O)O[C@@]1(C)[C@H]3[C@H]2C [Example 86] | ≤ 0.005 µg/mL | < 0.005 µg/mL | > 100 µg/mL | 50 µg/mL (≈ 65.9 µM) | > 100 µg/mL | > 100 µg/mL | 0.05 µg/mL (≈ 0.0659 µM) | 0.39 µg/mL (≈ 0.514 µM) | 0.01 µg/mL (≈ 0.0132 µM) | 0.05 µg/mL (≈ 0.0659 µM) | > 100 µg/mL | 0.2 µg/mL (≈ 0.264 µM) | > 100 µg/mL | 0.39 µg/mL (≈ 0.514 µM) | > 100 µg/mL | > 100 µg/mL | > 100 µg/mL | 100 µg/mL (≈ 132 µM) | 0.39 µg/mL (≈ 0.514 µM) | 0.39 µg/mL (≈ 0.514 µM) | MIC [2]: 0.78 µg/mL (≈ 1.03 µM); MIC [22]: > 100 µg/mL; MIC [23]: > 100 µg/mL; MIC [24]: 0.39 µg/mL (≈ 0.514 µM); MIC [25]: > 100 µg/mL; MIC [26]: > 100 µg/mL; MIC [27]: 0.39 µg/mL (≈ 0.514 µM); MIC [28]: 1.56 µg/mL (≈ 2.06 µM); MIC [29]: 0.39 µg/mL (≈ 0.514 µM); MIC [30]: > 100 µg/mL; MIC [31]: > 100 µg/mL; MIC [32]: 100 µg/mL (≈ 132 µM)
CC[C@H]1OC(=O)[C@H](C)C(=O)[C@H](C)[C@@H](O[C@@H]2O[C@H](C)C[C@H](N(C)C)[C@H]2O)[C@](C)(OC)C[C@@H](C)C2=NC3CCCCC3N3C(=O)O[C@@]1(C)[C@H]3[C@H]2C (stereo partly shown) [Example 106] | ≤ 0.005 µg/mL | ≤ 0.005 µg/mL | > 100 µg/mL | 12.5 µg/mL (≈ 18.1 µM) | > 100 µg/mL | 25 µg/mL (≈ 36.1 µM) | 0.05 µg/mL (≈ 0.0723 µM) | 0.39 µg/mL (≈ 0.564 µM) | 0.02 µg/mL (≈ 0.0289 µM) | 0.05 µg/mL (≈ 0.0723 µM) | > 100 µg/mL | 0.2 µg/mL (≈ 0.289 µM) | 100 µg/mL (≈ 145 µM) | 0.2 µg/mL (≈ 0.289 µM) | > 100 µg/mL | > 100 µg/mL | > 100 µg/mL | 25 µg/mL (≈ 36.1 µM) | 0.39 µg/mL (≈ 0.564 µM) | 0.2 µg/mL (≈ 0.289 µM) | MIC [2]: 3.1 µg/mL (≈ 4.48 µM); MIC [22]: 100 µg/mL (≈ 145 µM); MIC [23]: 25 µg/mL (≈ 36.1 µM); MIC [24]: 0.2 µg/mL (≈ 0.289 µM); MIC [25]: 100 µg/mL (≈ 145 µM); MIC [26]: 100 µg/mL (≈ 145 µM); MIC [27]: 0.39 µg/mL (≈ 0.564 µM); MIC [28]: 0.78 µg/mL (≈ 1.13 µM); MIC [29]: 0.2 µg/mL (≈ 0.289 µM); MIC [30]: 50 µg/mL (≈ 72.3 µM); MIC [31]: > 100 µg/mL; MIC [32]: 100 µg/mL (≈ 145 µM)
CC[C@H]1OC(=O)[C@H](C)C(=O)[C@H](C)[C@@H](O[C@@H]2O[C@H](C)C[C@H](N(C)C)[C@H]2O)[C@](C)(OC)C[C@@H](C)C2=NC3CN(C(C)c4ccccc4)CC3N3C(=O)O[C@@]1(C)[C@H]3[C@H]2C (stereo partly shown) [Example 113] | 0.01 µg/mL (≈ 0.0128 µM) | 0.05 µg/mL (≈ 0.0639 µM) | > 100 µg/mL | 50 µg/mL (≈ 63.9 µM) | > 100 µg/mL | > 100 µg/mL | 0.2 µg/mL (≈ 0.255 µM) | 0.78 µg/mL (≈ 0.996 µM) | 0.2 µg/mL (≈ 0.255 µM) | 0.1 µg/mL (≈ 0.128 µM) | > 100 µg/mL | 0.39 µg/mL (≈ 0.498 µM) | > 100 µg/mL | 0.78 µg/mL (≈ 0.996 µM) | > 100 µg/mL | > 100 µg/mL | > 100 µg/mL | > 100 µg/mL | 0.78 µg/mL (≈ 0.996 µM) | 1.56 µg/mL (≈ 1.99 µM) | MIC [22]: > 100 µg/mL; MIC [23]: > 100 µg/mL; MIC [24]: 0.78 µg/mL (≈ 0.996 µM); MIC [25]: > 100 µg/mL; MIC [26]: > 100 µg/mL; MIC [28]: 3.1 µg/mL (≈ 3.96 µM); MIC [29]: 0.78 µg/mL (≈ 0.996 µM); MIC [30]: > 100 µg/mL; MIC [31]: > 100 µg/mL; MIC [33]: 0.39 µg/mL (≈ 0.498 µM); MIC [32]: > 100 µg/mL
